Source: patent publication US20230399313A1, “BIOLOGICAL ACTIVITIES OF 5-(2-(4-(4-FLUORO-2-METHYL-1H-INDOL-5-YLOXY)-6-METHOXYQUINOLIN-7-YLOXY)ETHYL)-5-AZASPIRO[2.4]-HEPTAN-7-OL CRYSTALLINE, PHOSPHORIC ACID SALT AND ITS ENANTIOMERS” (Advenchen Pharmaceuticals, LLC, priority 2022, published 2023)

Legend:
[1] = Stability of amorphous and crystalline form API at 60° C. (HPLC related substances); type: physicochemical
Method: The samples of amorphous and crystalline form API of Compound A were placed in clean containers and the environmental temperature was controlled at 60° C. The purity of amorphous (Compound A-Amp) and crystalline form (Compound A-Xln) of Compound A were tested at Day 0, Day 10 and Day 30. Samples of amorphous and crystalline form APIs were measured, and the appropriate amount of diluent was added to dissolve with sonication. The concentration was controlled at 0.2 mg/ml and the purification was determined by HPLC with UV detector at 230 nm. Results were listed in the table as follows and the fitted curve is in Drawing Sections as FIG. 6.

[2] = target: Aurora-B (Homo sapiens, UniProt Q96GD4); experiment: Kinase inhibition; type: biochemical
Source text: (§1) In vitro tyrosine kinase inhibition activities can be measured via commercial resources. Some of these tests can also be contracted with Eurofin or Reaction Biology for screening.
(§2) For the kinase inhibition tests, receptor tyrosine kinases are selected from FGFR1(h), FGFR2(h), FGFR3(h), Flt1(h) (VEGFr1), Flt4(h) (VEGFr3), KDR(h) (VEGFr2), Aurora-B, PDGFRα(h) and PDGFRβ(h).

[3] = target: FGFR1(h) (Homo sapiens, UniProt P11362); experiment: Kinase inhibition; type: biochemical
Source text: as §1, §2

[4] = target: FGFR2(h) (Homo sapiens, UniProt P21802); experiment: Kinase inhibition; type: biochemical
Source text: as §1, §2

[5] = target: FGFR3(h) (Homo sapiens, UniProt P22607); experiment: Kinase inhibition; type: biochemical
Source text: as §1, §2

[6] = target: Flt1(h) (VEGFr1) (Homo sapiens, UniProt P17948); experiment: Kinase inhibition; type: biochemical
Source text: as §1, §2

[7] = target: Flt4(h) (VEGFr3) (Homo sapiens, UniProt P35916); experiment: Kinase inhibition; type: biochemical
Source text: as §1, §2

[8] = target: PDGFRα(h) (Homo sapiens, UniProt P16234); experiment: Kinase inhibition; type: biochemical
Source text: (§3) […]. In vitro tyrosine kinase inhibition activities can be measured via commercial resources. Some of these tests can also be contracted with Eurofin or Reaction Biology for screening.
(§4) For the kinase inhibition tests, receptor tyrosine kinases are selected from FGFR1(h), FGFR2(h), FGFR3(h), Flt1(h) (VEGFr1), Flt4(h) (VEGFr3), KDR(h) (VEGFr2), Aurora-B, PDGFRα(h) and PDGFRβ(h). […] […].

[9] = target: PDGFRβ(h) (Homo sapiens, UniProt P09619); experiment: Kinase inhibition; type: biochemical
Source text: as §3, §4

[10] = tested on: A2780; experiment: In vitro MTT (proliferation) assay; type: cell-based; conditions: Homo sapiens, Ovary
[11] = tested on: HL-60; experiment: In vitro MTT (proliferation) assay; type: cell-based; conditions: Homo sapiens, Blood
[12] = tested on: Molt-4; experiment: In vitro MTT (proliferation) assay; type: cell-based; conditions: Homo sapiens, Blood
[13] = tested on: K562; experiment: In vitro MTT (proliferation) assay; type: cell-based; conditions: Homo sapiens, Blood
[14] = tested on: HCT-116; experiment: In vitro MTT (proliferation) assay; type: cell-based; conditions: Homo sapiens, Colon, read-out: IC50
Method: (§5) The inhibitions of Compound A-Xln, Compound A-P-Xln and two chiral isomers (Compound R-A, Compound S-A) to cancer cell lines are tested via in vitro MTT assay. Cancer cell lines are selected from PANC-1, NCI-H157, MDA-MB-231, Hela, PC-3, BEL7404, MKN45, Ishikawa, Saos-2, SKOV3, SW579 and HCT116 cell lines. The IC50 values are in the micromole scale.
(§6) In vitro MTT (proliferation) assay was performed with compound from above examples to give following inhibition results: […]

[15] = tested on: Hela; experiment: In vitro MTT (proliferation) assay; type: cell-based; conditions: Homo sapiens; Cervix, Hela; read-out: IC50
Method: as §5, §6

[16] = tested on: MDA-MB-231; experiment: In vitro MTT (proliferation) assay; type: cell-based; conditions: Homo sapiens; Breast, MDA-MB-231; read-out: IC50
Method: as §5, §6

[17] = tested on: SKOV3; experiment: In vitro MTT (proliferation) assay; type: cell-based; conditions: Homo sapiens, SK-OV-3; Ovary, SKOV3; read-out: IC50
Method: as §5, §6

[18] = tested on: U937; experiment: In vitro MTT (proliferation) assay; type: cell-based; conditions: Homo sapiens, U-937, Blood
Method: as §5, §6

[19] = tested on: BEL-7402; experiment: In vitro MTT (proliferation) assay; type: cell-based; conditions: Homo sapiens, Liver
[20] = tested on: HepG2; experiment: In vitro MTT (proliferation) assay; type: cell-based; conditions: Homo sapiens, Liver
[21] = tested on: SMMC-7721; experiment: In vitro MTT (proliferation) assay; type: cell-based; conditions: Homo sapiens, Liver
[22] = tested on: 786-O; experiment: In vitro MTT (proliferation) assay; type: cell-based; conditions: Homo sapiens, 786-0, Kidney
[23] = tested on: breast cancer cell line BT474; experiment: Combination therapy MTT assay; type: cell-based, human; conditions: BT474, combined with aromatase inhibitors Anatrozole and Letrozole, 72 h
Method: (§7) Compound A-Xln combination therapy MTT assay results were investigated. 100 μl of cell suspension with a concentration of 5×10^4 cells/ml was added to each well of a 96-well plate, and place in a 37° C., 5% CO2 incubator. After 24 h, Compound A-Xln sample solution was added according to Table 13, 10 μl/well for double-duplicate wells. After 72 hours at 37° C. and 5% CO2 incubation, 20 μl of 5 mg/ml MTT solution was added to each well, then 100 µl/well of dissolving solution was added after 4 hours. The samples were put in an incubator, and a full-wavelength multifunctional enzyme label machine was used after dissolving. The OD value at 570 nm was measured.

[24] = tested on: breast cancer cell line MCF7; experiment: Combination therapy MTT assay; type: cell-based, human; conditions: MCF7, combined with aromatase inhibitors Anatrozole and Letrozole, 72 h
Method: as §7

[25] = high temperature 60° C., 10 days
[26] = high temperature 60° C., 30 days

Chain of PDGFRβ(h) (P09619 33-1106): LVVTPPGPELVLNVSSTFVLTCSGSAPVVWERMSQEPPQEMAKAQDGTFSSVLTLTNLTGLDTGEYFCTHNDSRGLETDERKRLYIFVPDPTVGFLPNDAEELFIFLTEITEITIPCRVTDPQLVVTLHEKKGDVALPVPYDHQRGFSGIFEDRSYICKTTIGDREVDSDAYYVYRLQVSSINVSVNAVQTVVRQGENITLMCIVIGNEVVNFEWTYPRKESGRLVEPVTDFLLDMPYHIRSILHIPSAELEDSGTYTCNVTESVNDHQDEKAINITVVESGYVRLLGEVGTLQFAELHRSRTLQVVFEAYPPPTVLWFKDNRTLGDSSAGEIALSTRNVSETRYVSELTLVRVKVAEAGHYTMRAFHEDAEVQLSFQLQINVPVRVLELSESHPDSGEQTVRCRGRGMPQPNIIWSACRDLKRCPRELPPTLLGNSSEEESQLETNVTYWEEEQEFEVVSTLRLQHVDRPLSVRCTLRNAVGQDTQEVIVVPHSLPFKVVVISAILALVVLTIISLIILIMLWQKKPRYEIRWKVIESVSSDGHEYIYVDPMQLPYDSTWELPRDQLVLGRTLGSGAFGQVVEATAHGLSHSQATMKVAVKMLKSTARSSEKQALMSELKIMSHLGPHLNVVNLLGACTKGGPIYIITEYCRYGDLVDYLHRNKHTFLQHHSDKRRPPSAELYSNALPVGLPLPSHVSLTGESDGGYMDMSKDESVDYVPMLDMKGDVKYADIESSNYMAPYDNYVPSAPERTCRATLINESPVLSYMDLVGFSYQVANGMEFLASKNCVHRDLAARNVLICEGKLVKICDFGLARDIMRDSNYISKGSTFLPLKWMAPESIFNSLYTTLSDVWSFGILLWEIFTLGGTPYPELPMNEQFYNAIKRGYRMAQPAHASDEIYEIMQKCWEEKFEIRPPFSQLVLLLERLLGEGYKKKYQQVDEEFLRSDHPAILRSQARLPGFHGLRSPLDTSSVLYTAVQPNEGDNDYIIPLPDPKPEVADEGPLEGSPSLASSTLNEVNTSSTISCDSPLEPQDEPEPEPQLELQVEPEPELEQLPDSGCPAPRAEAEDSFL
Chain of Flt1(h) (VEGFr1) (P17948 27-1338): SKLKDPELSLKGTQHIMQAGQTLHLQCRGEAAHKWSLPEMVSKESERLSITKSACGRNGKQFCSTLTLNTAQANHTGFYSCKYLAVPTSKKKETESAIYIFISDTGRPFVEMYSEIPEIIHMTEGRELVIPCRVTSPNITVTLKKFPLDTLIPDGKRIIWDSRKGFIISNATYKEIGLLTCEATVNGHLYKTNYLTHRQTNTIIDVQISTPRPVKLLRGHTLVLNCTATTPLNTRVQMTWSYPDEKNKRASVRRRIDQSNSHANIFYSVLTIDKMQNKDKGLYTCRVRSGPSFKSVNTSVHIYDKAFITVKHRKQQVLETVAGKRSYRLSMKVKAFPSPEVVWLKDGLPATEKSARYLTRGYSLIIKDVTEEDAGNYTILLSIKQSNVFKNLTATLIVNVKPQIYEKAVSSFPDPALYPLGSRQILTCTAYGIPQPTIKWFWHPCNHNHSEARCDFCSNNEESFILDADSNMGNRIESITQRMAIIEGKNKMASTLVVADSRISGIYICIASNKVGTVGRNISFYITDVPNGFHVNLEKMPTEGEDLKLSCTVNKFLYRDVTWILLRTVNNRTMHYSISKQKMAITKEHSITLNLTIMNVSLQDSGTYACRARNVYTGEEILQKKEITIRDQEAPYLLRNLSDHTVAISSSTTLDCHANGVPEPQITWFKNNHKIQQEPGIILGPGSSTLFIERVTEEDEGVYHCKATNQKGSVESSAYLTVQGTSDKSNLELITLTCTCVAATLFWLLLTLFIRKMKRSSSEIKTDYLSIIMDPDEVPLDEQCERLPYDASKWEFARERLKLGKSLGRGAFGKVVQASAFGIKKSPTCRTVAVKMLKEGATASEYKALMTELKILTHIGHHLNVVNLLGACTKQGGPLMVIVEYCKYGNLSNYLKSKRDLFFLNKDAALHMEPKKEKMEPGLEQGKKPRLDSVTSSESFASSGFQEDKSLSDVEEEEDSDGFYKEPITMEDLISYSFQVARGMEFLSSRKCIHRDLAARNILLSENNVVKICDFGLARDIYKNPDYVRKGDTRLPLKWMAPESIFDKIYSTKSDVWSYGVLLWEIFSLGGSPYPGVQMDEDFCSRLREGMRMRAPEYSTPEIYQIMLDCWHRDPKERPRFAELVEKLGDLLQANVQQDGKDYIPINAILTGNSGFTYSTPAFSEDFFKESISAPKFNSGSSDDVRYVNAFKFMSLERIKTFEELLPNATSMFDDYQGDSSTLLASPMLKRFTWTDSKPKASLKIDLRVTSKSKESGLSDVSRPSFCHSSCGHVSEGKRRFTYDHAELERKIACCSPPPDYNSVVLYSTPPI
Chain of FGFR3(h) (P22607 23-806): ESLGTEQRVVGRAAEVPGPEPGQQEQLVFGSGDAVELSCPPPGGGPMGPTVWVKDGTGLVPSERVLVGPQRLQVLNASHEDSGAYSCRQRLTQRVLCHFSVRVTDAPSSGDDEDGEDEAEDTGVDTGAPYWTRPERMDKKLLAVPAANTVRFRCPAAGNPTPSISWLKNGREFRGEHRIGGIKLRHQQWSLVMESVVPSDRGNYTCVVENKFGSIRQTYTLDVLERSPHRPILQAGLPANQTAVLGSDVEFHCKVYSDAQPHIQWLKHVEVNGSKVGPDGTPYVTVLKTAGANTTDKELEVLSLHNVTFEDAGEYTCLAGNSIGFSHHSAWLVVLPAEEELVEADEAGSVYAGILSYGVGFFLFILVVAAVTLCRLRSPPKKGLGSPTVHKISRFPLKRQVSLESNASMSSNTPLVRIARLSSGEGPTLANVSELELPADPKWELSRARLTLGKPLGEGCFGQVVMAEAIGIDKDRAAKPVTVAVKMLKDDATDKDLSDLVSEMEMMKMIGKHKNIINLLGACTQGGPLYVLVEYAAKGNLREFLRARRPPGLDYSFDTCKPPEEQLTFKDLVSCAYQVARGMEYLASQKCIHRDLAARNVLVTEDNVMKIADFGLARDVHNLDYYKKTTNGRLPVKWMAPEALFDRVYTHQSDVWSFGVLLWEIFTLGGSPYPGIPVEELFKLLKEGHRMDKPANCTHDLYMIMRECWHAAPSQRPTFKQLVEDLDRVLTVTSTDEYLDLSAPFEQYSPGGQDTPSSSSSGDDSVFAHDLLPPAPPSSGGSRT
Chain of FGFR1(h) (P11362 22-822): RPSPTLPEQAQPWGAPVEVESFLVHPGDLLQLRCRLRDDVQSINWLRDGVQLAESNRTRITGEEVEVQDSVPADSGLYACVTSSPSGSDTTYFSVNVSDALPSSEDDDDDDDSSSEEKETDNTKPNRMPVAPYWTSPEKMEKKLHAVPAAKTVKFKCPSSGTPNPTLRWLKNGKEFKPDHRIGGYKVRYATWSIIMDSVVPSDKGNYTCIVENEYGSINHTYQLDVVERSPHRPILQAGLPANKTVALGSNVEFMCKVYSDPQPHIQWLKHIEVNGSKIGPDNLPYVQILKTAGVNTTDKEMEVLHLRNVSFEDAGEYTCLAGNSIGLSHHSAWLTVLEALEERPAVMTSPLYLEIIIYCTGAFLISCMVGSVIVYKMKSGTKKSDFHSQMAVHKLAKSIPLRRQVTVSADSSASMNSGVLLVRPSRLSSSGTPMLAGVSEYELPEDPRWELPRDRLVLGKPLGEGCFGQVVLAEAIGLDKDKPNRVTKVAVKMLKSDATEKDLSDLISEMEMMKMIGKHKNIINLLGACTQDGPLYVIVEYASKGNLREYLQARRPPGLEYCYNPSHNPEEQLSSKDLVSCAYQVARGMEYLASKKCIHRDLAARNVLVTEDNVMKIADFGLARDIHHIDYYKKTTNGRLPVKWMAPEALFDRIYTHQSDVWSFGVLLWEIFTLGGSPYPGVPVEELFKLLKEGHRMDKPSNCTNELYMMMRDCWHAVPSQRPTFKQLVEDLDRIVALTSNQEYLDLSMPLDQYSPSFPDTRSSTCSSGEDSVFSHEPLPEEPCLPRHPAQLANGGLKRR
Chain of FGFR2(h) (P21802 22-821): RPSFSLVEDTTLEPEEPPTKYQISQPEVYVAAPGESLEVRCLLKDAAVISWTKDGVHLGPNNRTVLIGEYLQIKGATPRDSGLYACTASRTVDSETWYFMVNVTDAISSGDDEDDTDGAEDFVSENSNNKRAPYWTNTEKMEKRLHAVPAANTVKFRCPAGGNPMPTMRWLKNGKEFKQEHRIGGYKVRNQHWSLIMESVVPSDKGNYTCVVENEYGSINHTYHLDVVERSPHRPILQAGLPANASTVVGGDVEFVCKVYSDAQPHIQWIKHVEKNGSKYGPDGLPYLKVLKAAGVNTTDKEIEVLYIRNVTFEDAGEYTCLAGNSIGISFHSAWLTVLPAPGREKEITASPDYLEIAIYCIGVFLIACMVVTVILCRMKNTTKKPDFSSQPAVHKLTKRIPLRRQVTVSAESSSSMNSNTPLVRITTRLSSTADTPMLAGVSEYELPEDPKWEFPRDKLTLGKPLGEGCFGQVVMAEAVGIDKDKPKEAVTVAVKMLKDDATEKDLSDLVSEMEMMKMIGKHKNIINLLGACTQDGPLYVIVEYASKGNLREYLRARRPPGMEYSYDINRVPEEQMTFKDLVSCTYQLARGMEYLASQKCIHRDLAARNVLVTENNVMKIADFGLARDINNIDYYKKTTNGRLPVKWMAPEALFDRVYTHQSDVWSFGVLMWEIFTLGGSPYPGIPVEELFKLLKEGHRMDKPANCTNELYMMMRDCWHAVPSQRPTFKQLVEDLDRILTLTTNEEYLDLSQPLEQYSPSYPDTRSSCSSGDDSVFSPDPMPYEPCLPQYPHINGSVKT

With `COc1cc2c(Oc3ccc4[nH]c(C)cc4c3F)ccnc2cc1OCCN1CC(O)C2(CC2)C1` (stereo not drawn) [Compound A-Xln, 5-(2-(4-(4-fluoro-2-methyl-1H-indol-5-yloxy)-6-methoxyquinolin-7-yloxy)ethyl)-5-azaspiro[2.4]-heptan-7-ol] as the molecule, how does the “Maximum impurities (%)” value ([1]; 0 day) read?
Its value is 0.032%.

What about the “Total impurities (%)” value ([1]; 0 day) of the same molecule?
The value was 0.078%.

What about the “Stability compared with the amorphous form” value ([1]; 60° C., up to 30 days) of the same molecule?
Its value is “better stability than A-Amp”.

What about the “Maximum impurities (%)” value [1, 25] of the same molecule?
The value was 0.039%.

And the “Total impurities (%)” value [1, 25]?
The value was 0.115%.

What about the “Maximum impurities (%)” value [1, 26] of the same molecule?
Its value is 0.063%.

And the “Total impurities (%)” value [1, 26]?
The value was 0.194%.

What about the IC50 [2] of the same molecule?
The IC50 was 0.047 µM.

What about the IC50 [3] of the same molecule?
The IC50 was 0.004 µM.

And the IC50 [4]?
The IC50 was 0.008 µM.

What about the IC50 [5] of the same molecule?
Its IC50 is 0.006 µM.

What about the IC50 [6] of the same molecule?
The IC50 was 0.004 µM.

What about the IC50 [7] of the same molecule?
Its IC50 is 0.002 µM.

What about the IC50 [8] of the same molecule?
The IC50 was 0.16 µM.

And the IC50 [9]?
Its IC50 is 0.026 µM.

And the IC50 [10]?
Its IC50 is 2.63 ± 0.27 µM.

And the IC50 [11]?
Its IC50 is 1.98 ± 1.13 µM.

And the IC50 [12]?
Its IC50 is 5.53 ± 2.78 µM.

What about the IC50 [13] of the same molecule?
Its IC50 is 6.37 ± 2.56 µM.

What about the IC50 [14] of the same molecule?
Its IC50 is 11.7 ± 3.69 µM.

What about the IC50 [15] of the same molecule?
Its IC50 is 11.2 ± 2.71 µM.

What about the IC50 [16] of the same molecule?
The IC50 was 7.77 ± 0.02 µM.

And the IC50 [17]?
Its IC50 is 17.1 ± 0.55 µM.

And the IC50 [18]?
The IC50 was 10 ± 2.28 µM.

What about the IC50 [19] of the same molecule?
The IC50 was 0.86 ± 0.15 µM.

What about the IC50 [20] of the same molecule?
Its IC50 is 9.12 ± 3.06 µM.

What about the IC50 [21] of the same molecule?
Its IC50 is 8.01 ± 2.53 µM.

And the IC50 [22]?
Its IC50 is 10.1 ± 3.97 µM.

And the “Proliferation inhibition in combination” value [23]?
The value was “increased”.

What about the “Proliferation inhibition in combination” value [24] of the same molecule?
The value was “increased”.
